“Also recorded” adds a separate entry of the source.
What was measured:
[1] = molecular target: T1, IDE, His-Tag, rat, recombinant (Rattus norvegicus, UniProt P35559); experiment: HPLC-MS enzymatic assay: degradation of NPFF and NPAF by IDE; type: in vitro ADME; details: PBS pH 7.4, 37 °C, LC-ESI/MS; for cleavage of the peptide by IDE: stability with named protease IDE (135 nM), peptide 20 μM, aliquots 0-180 min, stopped with 1% TFA, repeated three times
T1 construct: His-Tag; purchased Sigma Aldrich; host or cells: Spodoptera frugiperda
T1 sequence (P35559 1-1019): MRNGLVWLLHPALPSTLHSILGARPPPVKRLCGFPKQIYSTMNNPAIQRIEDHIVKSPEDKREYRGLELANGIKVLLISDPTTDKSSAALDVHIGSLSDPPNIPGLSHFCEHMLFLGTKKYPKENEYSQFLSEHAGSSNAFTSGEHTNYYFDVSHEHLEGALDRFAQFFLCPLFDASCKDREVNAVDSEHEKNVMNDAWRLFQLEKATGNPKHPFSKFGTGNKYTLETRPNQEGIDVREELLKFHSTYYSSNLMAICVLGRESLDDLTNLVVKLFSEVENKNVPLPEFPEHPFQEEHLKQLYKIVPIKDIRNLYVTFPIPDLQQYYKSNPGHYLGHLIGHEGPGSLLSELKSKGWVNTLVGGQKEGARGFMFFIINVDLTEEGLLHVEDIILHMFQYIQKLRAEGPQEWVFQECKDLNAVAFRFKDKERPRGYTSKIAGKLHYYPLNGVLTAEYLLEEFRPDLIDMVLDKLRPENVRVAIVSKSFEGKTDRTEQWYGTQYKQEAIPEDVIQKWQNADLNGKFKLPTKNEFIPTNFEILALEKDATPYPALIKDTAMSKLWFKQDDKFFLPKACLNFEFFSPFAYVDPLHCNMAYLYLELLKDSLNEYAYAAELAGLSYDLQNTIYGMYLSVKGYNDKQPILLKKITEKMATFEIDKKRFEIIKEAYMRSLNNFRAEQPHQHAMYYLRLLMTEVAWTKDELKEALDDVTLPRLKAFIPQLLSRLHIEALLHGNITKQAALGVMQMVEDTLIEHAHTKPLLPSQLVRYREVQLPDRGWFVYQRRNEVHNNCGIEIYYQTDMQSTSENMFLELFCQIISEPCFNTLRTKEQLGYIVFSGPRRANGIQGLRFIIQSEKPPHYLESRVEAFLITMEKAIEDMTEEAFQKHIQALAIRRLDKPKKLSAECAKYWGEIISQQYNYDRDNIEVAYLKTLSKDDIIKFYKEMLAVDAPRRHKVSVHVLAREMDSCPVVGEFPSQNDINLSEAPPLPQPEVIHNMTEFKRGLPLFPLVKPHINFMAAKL
Description: IDE, His-Tag, rat, recombinant, Spodoptera frugiperda, were purchased from Sigma Aldrich. […] Peptides were purified by the high-performance liquid chromatography (HPLC) and tested for their purity using ESI MS. Purity was above 95%. […] The liquid chromatography-electrospray ionisation mass spectrometry (LC-ESI/MS) experiments were carried out by using a LCQ Deca XP instrument (Thermo Electron Corporation, USA). All solutions were incubated in PBS (pH 7.4) at 37 °C. […] Samples were kept at 4 °C before HPLC-MS analysis. […] Separation of the generated fragments was carried out by the reversed-phase chromatography using a Jupiter® 5 µm C4 300 Å (LC Column 150 × 4.6 mm) column from Phenomenex at the flow rate of 250 μl/min. MS-MS experiments were used for final identification of the peptide fragments. All methodological details and a semiquantitative method were already described in our previous work, and the absolute intensities of the peaks were normalised to the total ion current[18]^,[24]^,[25]. The experiments were repeated three times to ensure reproducibility and estimate the error bars on the HPLC-MS results.

[2] = molecular target: T1, IDE, His-Tag, rat, recombinant; experiment: Insulin degradation by IDE in the presence of NPAF/NPFF (HPLC-MS); type: biochemical; details: PBS pH 7.4, 37 °C, LC-ESI/MS; for effect on insulin degradation by IDE after 3 h pre-incubation of the neuropeptide with IDE (NP fragments): NP 20 μM incubated 3 h with IDE 135 nM, then insulin 10 μM added, data not shown
Description: IDE, His-Tag, rat, recombinant, Spodoptera frugiperda, were purchased from Sigma Aldrich. NPAF, NPFF were manually synthesised by the solid-phase method using Fmoc chemistry. Peptides were purified by the high-performance liquid chromatography (HPLC) and tested for their purity using ESI MS. […] The liquid chromatography-electrospray ionisation mass spectrometry (LC-ESI/MS) experiments were carried out by using a LCQ Deca XP instrument (Thermo Electron Corporation, USA). All solutions were incubated in PBS (pH 7.4) at 37 °C. After incubations, sample aliquots at time 0; 10; 30; 45; 60 and 180 min were taken and a 10% solution of TFA was added to the aliquots in order to achieve a final TFA concentration of 1% in all the samples to stop the enzymatic reaction. Samples were kept at 4 °C before HPLC-MS analysis. […] Separation of the generated fragments was carried out by the reversed-phase chromatography using a Jupiter® 5 µm C4 300 Å (LC Column 150 × 4.6 mm) column from Phenomenex at the flow rate of 250 μl/min. MS-MS experiments were used for final identification of the peptide fragments. All methodological details and a semiquantitative method were already described in our previous work, and the absolute intensities of the peaks were normalised to the total ion current[18]^,[24]^,[25]. The experiments were repeated three times to ensure reproducibility and estimate the error bars on the HPLC-MS results.

[3] = tested on: insulin-degrading enzyme (IDE), His-Tag, rat, recombinant; experiment: IDE (135 nM) in PBS (pH 7.4); details: 37 °C, up to 180 min

| Substance | cleavage of the peptide by IDE [1] | effect on insulin degradation by IDE after 3 h pre-incubation of the neuropeptide with IDE (NP fragments) [2] | cleaved bond [3] | also measured |
| --- | --- | --- | --- | --- |
| HAla-Gly-Glu-Gly-Leu-Ser-Ser-Pro-Phe-Trp-Ser-Leu-Ala-Ala-Pro-GlnOH [cryptic peptide at 1617.8 m/z, cryptic peptide formed from NPAF by IDE, detected at m/z 1617.8] | – | – | – | incubation time at which the relative intensity of the cryptic peptide reaches a maximum ([1]; NPAF 20 μM with IDE 135 nM, intensities normalised to total ion current, abundance diminishes afterwards): about 30 min |
| HPhe-Leu-Phe-Gln-Pro-Gln-Arg-PheOH [NPFF, neuropeptide generated from the NPFF precursor (pro-NPFF(A)), manually synthesised by Fmoc solid-phase method] | able to cleave | no activation effect | – | – |
| HAla-Gly-Glu-Gly-Leu-Ser-Ser-Pro-Phe-Trp-Ser-Leu-Ala-Ala-Pro-Gln-Arg-PheOH | – | – | Gly-Glu; also recorded: Ser-Leu, major, 10 min; also recorded: Leu-Ala, major, 10 min; also recorded: Gln-Arg, major, 10 min | – |
| HAla-Gly-Glu-Gly-Leu-Ser-Ser-Pro-Phe-Trp-Ser-Leu-Ala-Ala-Pro-Gln-Arg-PheOH [NPAF, neuropeptide generated from the NPFF precursor (pro-NPFF(A)), manually synthesised by Fmoc solid-phase method] | able to cleave | no activation effect | – | effect of the neuropeptide on insulin degradation by IDE (insulin molecular peak decrease) ([2]; NP 20 μM co-incubated with insulin 10 μM and IDE 135 nM, performed three times): activating effect |
| HPhe-Leu-Phe-Gln-Pro-Gln-Arg-PheOH | – | – | Gln-Arg, major, 10 min | – |

From paper PMC7801110 (Journal of Enzyme Inhibition and Medicinal Chemistry, 2021)
